What all share (experiment): growth of human tumour cells (NCI), 48 h
The test system of test [1] is A498 renal.
Test [2] has as its system CCRF-CEM leukemia.
In test [3] the test system is DU-145 prostate.
The test system of test [4] is HCT-15 colon.
The subject of test [5] is K-562 leukemia.
The test system of test [6] is LOX IMVI melanoma.
In test [7] the test system is SF-295 CNS.
The subject of test [8] is SK-MEL-5 melanoma.
The test system of test [9] is SNB-19 CNS.
For test [10], the system named is UACC-257 melanoma.

Our source for the TGI and GI50 values is PubChem BioAssay (NCI).

Molecules are shown by their SMILES. “And” between values parts separate entries of the source, which are not always exact repeats. Equal entries are not always repeated.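 Briefly, cells in 96-well plates were exposed to five compound concentrations for 48 h, and endpoints were estimated by linear interpolation. Abbreviation: GI50, concentration required for 50% inhibition of growth. TGI: total growth inhibition.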

Regarding `CCCCn1c2c(n(CCCC)c1=S)-c1c(n(CCCC)c(=S)n1CCCC)S[Se][Se]S2`, the TGI in test [1] was > 100 µM; in test [2] it was > 46.6 µM; in test [3] it was > 60.4 µM; in [4] it was 15.9 µM; in test [5] it was > 100 µM; in test [6] it was 27.2 µM. In addition, the TGI in test [7] was 30.5 µM; in [8] it was 19.6 µM; in [9], > 76.4 µM; in test [10], 30.8 µM.
As for `C=C1C(=O)OC2/C=C(\CO)C(OC(C)=O)CC(O)/C(C)=C/C(OC(=O)C(C)CC)C12` (configuration not stated), the TGI in [1] was 91.9 µM and 88.7 µM; in test [2] it was 22.7 µM and 69 µM; in [3] it was 43.8 µM; in [4] it was > 100 µM; in test [5], 21.4 µM and > 100 µM; in [6] it was 29.3 µM and 38.3 µM. Moreover, the TGI is > 100 µM in test [7]; 33 µM and 30.9 µM in test [8]; > 100 µM in test [9]; 28.9 µM and 38.5 µM in [10]. The GI50 in test [2] is 3.76 µM and 11.4 µM; in test [5], 5.62 µM and 36.9 µM.
Turning to `O=c1c2ncn(C3CC(O)C(CO)O3)c2nnn1Cc1ccccc1[N+](=O)[O-]` (configuration not stated), the TGI in test [1], in test [2], in test [3], in [4], in [5] and in test [6] was > 100 µM in each case. The TGI in test [7], in test [8], in test [9] and in test [10] was > 100 µM in each case.
For `COc1cc2c(cc1OC)C1c3ccccc3CCN1CC2` (configuration not stated), the TGI in [1], in [2], in test [3], in [4], in test [5] and in [6] was > 100 µM throughout. In addition, the TGI in test [7], in [8], in [9] and in test [10] was > 100 µM throughout.
Regarding `CC(C)=C[C@@H]1C[C@H](n2cc(C)c(=O)[nH]c2=O)ON1CCO`, the TGI in test [1], in test [2], in test [3], in test [4], in test [5] and in test [6] was > 100 µM in each case. In addition, the TGI in test [7], in [8], in test [9] and in test [10] was > 100 µM throughout.
On to `Cc1ccc(S(=O)(=O)N2CCSCCSCCSCCSCC2)cc1`, for which the TGI in test [1] was > 74.2 µM; in test [2] it was > 100 µM; in [3], > 100 µM; in [4] it was > 100 µM; in [5] it was > 100 µM; in test [6], > 100 µM. Besides, the TGI in test [7] was 39.3 µM; in test [8], > 86.9 µM; in test [9], 47.3 µM; in test [10], > 100 µM.
In the case of `Cc1ccccc1OC(C)C(=O)NN1C(=O)CC(=O)N(c2ccc(Cl)cc2)C1=S` (configuration not stated), the TGI is 64.6 µM in test [1]; 57 µM in test [2]; > 100 µM in [3]; > 100 µM in [4]; > 100 µM in test [5]; > 100 µM in test [6]. Besides, the TGI in test [7] is > 100 µM; in [8], 74.4 µM; in [9] it was > 100 µM; in test [10] it was > 100 µM.
On to `CN(C)NC(=S)Nc1ccccc1Br`, for which the TGI in test [1], in [2], in [3], in [4], in test [5] and in test [6] was > 100 µM each time. The TGI in test [7], in test [8], in test [9] and in [10] was > 100 µM each time.
Regarding `O=C1C(c2c(O)[nH]c3ccc(S(=O)(=O)O)cc23)=Nc2ccccc21`, the TGI in [1], in [2], in test [3], in test [4], in test [5] and in test [6] was > 100 µM in each case. Moreover, the TGI in [7], in [8], in test [9] and in test [10] was > 100 µM throughout.
Turning to `CC(=O)N/N=C1/NN(C(C)=O)C2(S1)C(=O)Nc1ccc(Br)cc12` (configuration not stated), the TGI in test [1], in test [2], in test [3], in [4], in [5] and in test [6] was > 100 µM in each case. Besides, the TGI in test [7], in test [8], in [9] and in [10] was > 100 µM throughout.
Take `NC(CSCc1ccccc1)C(=O)O` (configuration not stated): the TGI in [1], in test [2], in test [3], in test [4], in test [5] and in test [6] was > 100 µM throughout. The TGI in test [7], in [8], in test [9] and in test [10] was > 100 µM each time.
With `Cc1nn(C(=O)Cc2ccccc2)c2c1C(c1ccccc1O)SC(N)=N2` (configuration not stated), the TGI in [1], in test [2], in test [3], in test [4], in [5] and in test [6] was > 100 µM in each case. Besides, the TGI in [7], in test [8], in [9] and in [10] was > 100 µM throughout.
Regarding `Cc1cc2c(C)cc(=O)[nH]c2cc1N`, the TGI in test [1], in [2], in test [3], in test [4], in test [5] and in test [6] was > 100 µM each time. The TGI in test [7], in test [8], in [9] and in test [10] was > 100 µM in each case.
